From PubChem BioAssay AID1241 (SRMLSC, 2008)
pEC50: −log10 of the molar value.

Assay: NF-kB promoter reporter activators, neuronal cells, dose response, cell-based, SH-SY5Y, luciferase (AID 1241)
Conditions: fold induction; call rule not given here

pEC50, active:
COc1ccc2c(c1OC)C(=O)OC2Nc1nc(-c2ccc(-c3ccccc3)cc2)cs1 (stereo unspecified) 5.53
CSc1ccc(C(=O)/C=C/c2ccc(N)cc2)cc1 5.42
COc1ccc(-c2cc(=O)c3c(O)c(OC)c(O)cc3o2)cc1 5.64
Oc1c(C2=NCCNC(C(F)(F)F)=C2)ccc2ccccc12 4.75
COc1ccc(CSc2nc3ccccc3[nH]2)cc1 5.37
Nc1ccc2nc(-c3ccc(Cl)cc3)[nH]c2c1 5.00
O=C(/C=C/c1cccs1)N1CCc2ccccc21 6.45
COC(=O)c1sc(NC(=O)c2cc3c(s2)CCCC3)nc1C 4.87
C(=N\NC1=Nc2cccc3cccc1c23)/c1ccccn1 5.12
CCCCc1ccc(-c2ccc(C)cc2O)nc1 5.49
Cc1ccc(N/C=C(/C#N)c2ccsc2)cc1C 5.16
O=C(Nc1ccc2c(c1)CCC2)c1ccc(Br)s1 6.11
Cc1ccc2nc(NC(=O)c3cccs3)sc2c1 6.41
CCC(=O)Nc1nc(-c2ccc3c(c2)OCCO3)cs1 5.34
Oc1ccccc1-c1cc(-c2ccc3c(c2)OCCO3)n[nH]1 6.19
Cc1ccc(C2=NN(S(C)(=O)=O)C(c3ccc4c(c3)OCO4)C2)cc1 (stereo unspecified) 5.58
C(=N\Nc1nc2ccccc2s1)/c1ccco1 5.64
N/C(=N\N=C\c1ccc2c(c1)OCO2)c1nonc1N 6.56
COc1ccc(Cn2c(C3CC3)nc3ccc(NC(=O)C4CC4)cc3c2=O)cc1 5.89
COc1cccc2sc(N(C)c3ccccc3)nc12 5.57
Clc1ccc(-c2cn3c(n2)-c2ccccc2C3)cc1Cl 6.06
Cc1sc(NC(=O)c2ccc(Cl)s2)c(C(N)=O)c1C 5.77
O=C(CCc1ccccc1)Nc1ccc2ccccc2n1 4.79
CSc1ccc(/C=C/c2ccc3cccc(O)c3n2)cc1 5.60
Cc1ccccc1C(=O)O/N=C1\CCS(=O)(=O)c2sccc21 5.41
O=c1oc2ccccc2cc1-c1nnc(NCc2ccco2)s1 5.88
Cc1cc(C)cc(NC(=O)c2ccc([N+](=O)[O-])o2)c1 5.37
C(=N\Nc1nc(-c2ccccc2)cs1)/c1cccs1 5.22
COc1ccccc1/C=C/C(=O)Nc1ccc2c(c1)OCCO2 5.92
CN=c1scc(C)n1/N=C/c1ccc(O)cc1 4.81
Cc1c(C(=O)NC2=NCCS2)oc2ccccc12 5.99
Cc1ccc(NC(=O)COc2ccccc2[N+](=O)[O-])nc1 4.74
O=C(Nc1cccnc1Cl)c1ccc2c(Cl)c3c(nc2c1)CCC3 6.17
COc1cc(/C=N/Nc2nc3ccccc3s2)ccc1OC(=O)c1ccccc1F 5.85
CN(C)c1ccc(/C=c2\sc3n(c2=O)CCCN=3)cc1 4.93
Cc1cc(C)c2nc(NC(=O)C3CCCO3)sc2c1 (stereo unspecified) 4.73
c1ccc(-c2ncc(-c3ccn[nH]3)s2)cc1 5.63
CN(C)c1ccc(-c2nnc(-c3cccs3)o2)cc1 5.65
Cc1ccc(NC(=O)c2cc3c(s2)CCCC3)cc1 4.98
Clc1c(CSc2nc3ccccc3o2)nc2ccccn12 5.71
CC(=O)Oc1ccc(Oc2ccc(-c3noc(C)n3)cc2)cc1 5.55
Cc1cccnc1NCc1ccc(O)c2ncccc12 5.12
Cc1ccc(-c2nc3ccccc3[nH]2)s1 5.22
c1ccc(-c2ccc(-c3nc(-c4ccncc4)no3)cc2)cc1 6.20
Cc1ccc2nc(-c3ccc(NC(=O)CCN4C(=O)c5ccccc5C4=O)cc3)sc2c1 6.81
O=C(/C=C/c1ccco1)Nc1ccc2c(c1)OCCO2 5.89
CCOC(=O)c1c(N)sc(C(=O)Nc2ccc3c(c2)OCO3)c1C 6.06
CCN(CC)S(=O)(=O)c1cc(C(=O)OCC(=O)Nc2ccc(-c3nc4ccc(C)cc4s3)cc2)ccc1F 6.29
COc1ccc2nc(Nc3ccccc3)sc2c1 4.95
COc1ccccc1N1CCN(c2ccc(-c3ccccc3)nn2)CC1 6.14
Cc1ccc(-c2cc(-c3cccc(F)c3)n[nH]2)c(O)c1 5.36
NC(=O)c1ccccc1N/C=C/C(=O)c1ccc(Cl)cc1Cl 5.90
COc1ccc(N/C=C\C(=O)c2ccc3c(c2)OCO3)cc1 5.79
Cc1ccc(-c2nc3ccc([N+](=O)[O-])cc3[nH]2)cc1 6.24
CC(=O)Nc1ccc2oc(-c3cc(F)c(F)cc3Cl)nc2c1 6.09
O=C(Nc1ccccc1)c1cc2ccccc2o1 5.91
CCN(CC)c1ccc(/C=N/NC(=O)c2ccco2)cc1 5.37
CCOC(=O)c1sc(NC(=O)c2sccc2C)cc1C 6.02
O=C(/C=C\c1ccccc1)Nc1nccs1 5.97
COc1cc(/C=N/O)ccc1OCc1ccc([N+](=O)[O-])cc1 5.77
Fc1c(F)c(F)c(N/N=C/c2c[nH]c3ccccc23)c(F)c1F 5.41
C/C(=N\Nc1nc2ccccc2[nH]1)c1cccs1 5.55
c1ccc2sc(NN=C3CCCC3)nc2c1 5.28
COc1cc(SC)ccc1C(=O)NCCOc1ccccc1Cl 4.81
Cc1ccnc(NC(=O)Nc2cccc(F)c2)c1 6.22
O=c1[nH]c(/C=C2\C=Nc3ccccc32)c(O)n1Cc1ccccc1F 5.60
COC(=O)Cc1ccc2sc(-c3ccccc3)nc2c1 6.15
O=C(COc1ccc2ccccc2c1)Nc1nccs1 6.11
CCc1ccc2oc(-c3ccc(N)cc3)nc2c1 6.47
C/C(=N\N1C(=O)c2ccccc2NC1c1ccco1)c1ccccc1O (stereo unspecified) 5.60
CSC(=S)N/N=C(\C)c1ccccc1 5.93
Nc1cccn2c(-c3ccc(Cl)cc3)cnc12 5.44
O=C(Nc1ccc(Cl)cc1Cl)C1=Cc2ccccc2OC1 5.09
Cc1ccc(Nc2nc(-c3ccc(O)c(O)c3)cs2)nc1 5.17
C/C(=N\NC(=O)c1ccc(Br)cc1)c1ccccc1 4.63
Cn1cccc1C(=O)OCc1csc(-c2ccccc2)n1 6.11
COc1cccc(/C=N/Nc2nccnc2Cl)c1O 5.66
N/C(=N\OC(=O)c1ccc(Cl)cc1Cl)c1cccnc1 5.68
COc1ccc2c(=O)c(-c3nc(C)cs3)coc2c1 5.97
O=[N+]([O-])c1cc(O)c2ncccc2c1 5.10
Cc1cccc(/C=C/c2nc3ccccc3c(=O)[nH]2)c1 6.08
